One may read the inhibition as the drop in the measured response relative to a control, in per cent.

Assay [1] has as its target T1, human B1R receptor (CHO K1 cells stably transfected with the human B1R gene) (Homo sapiens, UniProt P46663).
T1 construct: expressed in transfected cells; host or cells: CHO K1 cells (Chinese hamster ovary), stably transfected
T1 sequence (P46663 1-353): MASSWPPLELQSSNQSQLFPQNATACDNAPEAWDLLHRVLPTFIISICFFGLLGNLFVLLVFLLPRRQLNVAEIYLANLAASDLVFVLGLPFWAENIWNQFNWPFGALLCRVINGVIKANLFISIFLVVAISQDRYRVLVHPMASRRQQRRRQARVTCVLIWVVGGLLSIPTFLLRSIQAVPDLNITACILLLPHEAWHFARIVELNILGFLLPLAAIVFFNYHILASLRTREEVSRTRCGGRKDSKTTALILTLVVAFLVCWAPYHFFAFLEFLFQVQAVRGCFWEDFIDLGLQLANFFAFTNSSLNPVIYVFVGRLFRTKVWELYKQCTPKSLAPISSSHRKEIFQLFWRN
Nature of the assay: Functional study on the bradykinin receptor 1 (B1R), Ca2+ fluorescence (Fluo-4) FLIPR/Novostar assay, hB1R cells. It is filed as cell-based. Particulars: CHO-K1, read-out: % inhibition (human B1R) at 10 μM. An outline of the steps:
(§1)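 Test compounds (10 μM) were added first and the Ca2+ rise was scored as % activation against Lys-Des-Arg9-bradykinin (≥50 nM, human) or Des-Arg9-bradykinin (≥1 μM, rat). After 6-20 min, the matching agonist was given at its EC80, and % inhibition relative to maximal achievable inhibition was calculated.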

The target of assay [2] is T2, B1R receptor of the rat (CHO K1 cells stably transfected with the B1R gene of the rat) (Rattus norvegicus, UniProt P97583).
T2 construct: expressed in transfected cells; host or cells: CHO K1 cells (Chinese hamster ovary), stably transfected
T2 sequence (P97583 1-337): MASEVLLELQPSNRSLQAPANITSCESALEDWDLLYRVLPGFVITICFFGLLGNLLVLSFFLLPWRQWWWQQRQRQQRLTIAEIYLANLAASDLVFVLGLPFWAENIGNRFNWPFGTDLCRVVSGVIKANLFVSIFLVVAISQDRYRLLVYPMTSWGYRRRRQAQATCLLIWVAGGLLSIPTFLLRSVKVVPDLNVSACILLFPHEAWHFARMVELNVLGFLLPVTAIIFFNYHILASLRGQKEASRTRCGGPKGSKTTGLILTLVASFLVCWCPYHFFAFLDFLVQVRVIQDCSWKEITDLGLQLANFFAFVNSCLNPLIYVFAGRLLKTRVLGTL
The assay can be described thus: Functional study on the bradykinin receptor 1 (B1R), Ca2+ fluorescence (Fluo-4) FLIPR/Novostar assay, rB1R cells. Format: cell-based. Particulars: CHO-K1, 10 μM, read-out: % inhibition (rat B1R) at 10 μM. An outline of the steps: as §1

SMILES strings stand for the structures.

As for `Cc1cc(N2CCC(N(C)C(=O)c3ccc4c(c3)[C@H](NC(=O)c3cc(C)on3)CC4)CC2)ccn1` [Example H-95, 5-Methyl-N-[(1R)-6-[methyl-[1-(2 methyl-pyridin-4-yl)-piperidin-4-yl]-carbamoyl]-2,3-dihydro-1H-inden-1-yl]-isoxazole-3-carboxylic acid amide], the inhibition at 10 µM in assay [1] is 100%; in assay [2], 104%.
Turning to `Cc1cc(N2CCC(N(C)C(=O)c3ccc4c(c3)[C@H](NC(=O)c3cc(C)on3)CC4)CC2)nc(C)n1` [Example H-96, N-[(1R)-6-[[1-(2,6-Dimethyl-pyrimidin-4-yl)-piperidin-4-yl]-methyl-carbamoyl]-2,3-dihydro-1H-inden-1-yl]-5-methyl-isoxazole-3-carboxylic acid amide], the figures for the inhibition at 10 µM in assay [1] and in assay [2] were 100% and 104%, respectively.
`CN(C(=O)c1ccc2c(c1)[C@H](NC(=O)c1ccccc1Cl)CC2)C1CCN(c2cc[n+]([O-])cc2)CC1` [Example H-98, (3R)-3-[(2-Chloro-benzoyl)amino]-N-methyl-N-[1-(1-oxido-pyridin-1-ium-4-yl)-piperidin-4-yl]-2,3-dihydro-1H-indene-5-carboxylic acid amide]: the results for the inhibition at 10 µM in assay [1] and in assay [2] were 100% and 105%, respectively.
As for `CN(C(=O)c1ccc2c(c1)[C@H](NC(=O)c1ccccc1Cl)CC2)C1CCC(N2CCc3cnccc3C2)CC1` (stereo partly drawn) [Example H-99, (3R)-3-[(2-Chloro-benzoyl)amino]-N-methyl-N-[4-(1,2,3,4-tetrahydro-[2,6]naphthyridin-2-yl)-cyclohexyl]-2,3-dihydro-1H-indene-5-carboxylic acid amide], the inhibition at 10 µM in assay [1] worked out at 81%; in assay [2], 104%.
For `CN(C)c1cc(N2CCC(N(C)C(=O)c3ccc4c(c3)[C@H](NC(=O)c3ccccc3Cl)CC4)CC2)ccn1` [Example H-100, (3R)-3-[(2-Chloro-benzoyl)amino]-N-[1-(2-dimethylamino-pyridin-4-yl)-piperidin-4-yl]-N-methyl-2,3-dihydro-1H-indene-5-carboxylic acid amide] the same measures were 100% and 103%.
For `COc1ccc(N2CCC(N(C)C(=O)c3ccc4c(c3)[C@H](NC(=O)c3ccccc3Cl)CC4)CC2)cn1` [Example H-101, (3R)-3-[(2-Chloro-benzoyl)amino]-N-[1-(6-methoxy-pyridin-3-yl)-piperidin-4-yl]-N-methyl-2,3-dihydro-1H-indene-5-carboxylic acid amide] the same measures were 13% and 95%.
Regarding `CN(C)c1ncc2c(n1)CCN(C1CCC(N(C)C(=O)c3ccc4c(c3)[C@H](NC(=O)c3ccccc3Cl)CC4)CC1)C2` (stereo partly drawn) [Example H-102, (3R)-3-[(2-Chloro-benzoyl)amino]-N-[4-(2-dimethylamino-5,6,7,8-tetrahydro-pyrido[4,3-d]pyrimidin-6-yl)-cyclohexyl]-N-methyl-2,3-dihydro-1H-indene-5-carboxylic acid amide], the inhibition at 10 µM in assay [1] was 68%; in assay [2] it was 103%.
Consider `CN1CCN([C@@H]2CCC[C@H](N(C)C(=O)c3ccc4c(c3)[C@H](NC(=O)c3ccccc3Cl)CC4)C2)CC1` [Example H-103, (3R)-3-[(2-Chloro-benzoyl)amino]-N-methyl-N-[(1S,3R)-3-(4-methyl-piperazin-1-yl)-cyclohexyl]-2,3-dihydro-1H-indene-5-carboxylic acid amide], for which the inhibition at 10 µM came out at 27% in assay [1] and 72% in assay [2].
In the same order, the values of `CN1CCN([C@@H]2CCC[C@H](N(C)C(=O)c3ccc4c(c3)[C@H](NS(=O)(=O)c3ccccc3Cl)CC4)C2)CC1` [Example H-104, (3R)-3-[[(2-Chlorophenyl)sulfonyl]amino]-N-methyl-N-[(1S,3R)-3-(4-methyl-piperazin-1-yl)-cyclohexyl]-2,3-dihydro-1H-indene-5-carboxylic acid amide] are 75% and 37%.
In the same order, the values of `CN(C(=O)c1ccc2c(c1)C(N(C(=O)c1ccccc1Cl)C(C)(C)C)CC2)C1CCN(c2ccncc2)CC1` (stereo not shown) [Example H-110, 3-[tert-Butyl-(2-chloro-benzoyl)-amino]-N-methyl-N-(1-pyridin-4-yl-piperidin-4-yl)-2,3-dihydro-1H-indene-5-carboxylic acid amide] are 23% and 26%.
In the same order, the values of `CN1CCN([C@@H]2CCC[C@H](N(C)C(=O)c3ccc4c(c3)CC[C@H]4N3Cc4cccc(Cl)c4C3=O)C2)CC1` [Example H-111, (1R)-1-(4-Chloro-3-oxo-1,2-dihydro-isoindol-2-yl)-N-methyl-N-[(1S,3R)-3-(4-methyl-piperazin-1-yl)-cyclohexyl]-2,3-dihydro-1H-indene-5-carboxylic acid amide] are 65% and 10%.
Regarding `COc1cc(N2CCC(N(C)C(=O)c3ccc4c(c3)[C@H](NC(=O)c3ccccc3Cl)CC4)CC2)ccn1` [Example H-112, (3R)-3-[(2-Chloro-benzoyl)amino]-N-[1-(2-methoxy-pyridin-4-yl)-piperidin-4-yl]-N-methyl-2,3-dihydro-1H-indene-5-carboxylic acid amide], the inhibition at 10 µM in assay [1] and in assay [2] was 99% each time.
In the case of `CN(C)c1ccc(N2CCC(N(C)C(=O)c3ccc4c(c3)[C@H](NC(=O)c3ccccc3Cl)CC4)CC2)cn1` [Example H-113, (3R)-3-[(2-Chloro-benzoyl)amino]-N-[1-(6-dimethylamino-pyridin-3-yl)-piperidin-4-yl]-N-methyl-2,3-dihydro-1H-indene-5-carboxylic acid amide], the inhibition at 10 µM was 98% in assay [1] and 100% in assay [2].
`CN(C(=O)c1ccc2c(c1)[C@H](NC(=O)c1ccccc1Cl)CC2)C1CCC(Oc2ccncc2)CC1` (stereo partly drawn) [Example H-114, (3R)-3-[(2-Chloro-benzoyl)amino]-N-methyl-N-(4-pyridin-4-yloxy-cyclohexyl)-2,3-dihydro-1H-indene-5-carboxylic acid amide]: the inhibition at 10 µM is 38% in assay [1] and 96% in assay [2].
In the same order, the values of `CN(C(=O)c1ccc2c(c1)[C@H](NC(=O)c1ccccc1Cl)CC2)C1CCCN(c2ccncc2)C1` (stereo partly drawn) [Example H-115, (3R)-3-[(2-Chloro-benzoyl)amino]-N-methyl-N-(1-pyridin-4-yl-piperidin-3-yl)-2,3-dihydro-1H-indene-5-carboxylic acid amide] are 13% and 63%.
In the same order, the values of `CN(C(=O)c1ccc2c(c1)[C@H](NC(=O)c1ccccc1Cl)CC2)C1CCCN(c2ccncc2)CC1` (stereo partly drawn) [Example H-116, (3R)-3-[(2-Chloro-benzoyl)amino]-N-methyl-N-(1-pyridin-4-yl-azepan-4-yl)-2,3-dihydro-1H-indene-5-carboxylic acid amide] are 99% and 103%.
In the same order, the values of `CN(C(=O)c1ccc2c(c1)[C@H](NC(=O)c1ccccc1Cl)CC2)C1CCN(c2ccncc2F)CC1` [Example H-117, (3R)-3-[(2-Chloro-benzoyl)amino]-N-[1-(3-fluoro-pyridin-4-yl)-piperidin-4-yl]-N-methyl-2,3-dihydro-1H-indene-5-carboxylic acid amide] are 99% and 105%.

(Values after patent US8680159B2, “Bradykinin 1 receptor modulating compounds” (Gruenenthal GmbH, priority 2010, dated 2014).)
